Test results: patent US20130065868A1, “ANXIOYTIC MARCGRAVIACEAE COMPOSITIONS CONTAINING BETULINIC ACID, BETULINIC ACID DERIVATIVES, AND METHODS” (UNIVERSITY OF OTTAWA, priority 2002, published 2013)

What was measured:
GABA transporter = experiment: MDS Panlabs screen: GABA transporter; format: binding; settings: Gabaergic
Procedure: (§1) Tests were conducted by MDS Panlabs to determine whether any of the classical neurotransmitter systems or the peptidergic systems thought to play a role in anxiety are affected by betulinic acid.

bombesin = experiment: MDS Panlabs screen: bombesin; format: binding; settings: Peptides
Procedure: as §1

adrenergic α1 = experiment: MDS Panlabs screen: adrenergic α1; format: binding; settings: Catecholamines
Procedure: as §1

MAO B = MAO B (Homo sapiens, UniProt P27338); experiment: MDS Panlabs screen: MAO B; format: biochemical; settings: Catecholamines
Procedure: as §1

GABAA, BZP = experiment: MDS Panlabs screen: GABAA, BZP; format: binding; settings: Gabaergic
Procedure: as §1

adrenergic β = experiment: MDS Panlabs screen: adrenergic β; format: binding; settings: Catecholamines
Procedure: as §1

NE transporter = NE transporter (Homo sapiens, UniProt P23975); experiment: MDS Panlabs screen: NE transporter; format: binding; settings: Catecholamines
Procedure: as §1

BALB/c mice = experiment: Elevated plus maze test in BALB/c mice; format: in vivo, mouse; settings: vs peanut oil only control
From the text: BALB/c mice represent a strain of mice that is very stress-reactive.
Mice received dosages of betulinic acid in accordance with the previous example.

GABA C1-channel = experiment: MDS Panlabs screen: GABA channel; format: binding; settings: Gabaergic
Procedure: as §1

serotonin transporter = serotonin transporter (Homo sapiens, UniProt P31645); experiment: MDS Panlabs screen: serotonin transporter; format: binding; settings: Serotonin (5-HT)
Procedure: as §1

[1] = Elevated plus maze, betulinic acid vs structurally related compounds (Example 11); format: in vivo; settings: 0.5 mg/kg (FIG. 7)
From the text: This example compares the anxiolytic activity of betulinic acid and some other structurally related compounds. Results are illustrated in FIG. 7.

domaine D2 = domaine D2 (Homo sapiens, UniProt P14416); experiment: MDS Panlabs screen: D2; format: binding; settings: Catecholamines
Procedure: as §1

tachykinin NK3 = tachykinin NK3 (Homo sapiens, UniProt P29371); experiment: MDS Panlabs screen: tachykinin NK3; format: binding; settings: Peptides
Procedure: as §1

Histamine H3 = Histamine H3 (Homo sapiens, UniProt Q9Y5N1); experiment: MDS Panlabs screen: Histamine H3; format: binding
Procedure: as §1

cannabinoid CB2 = cannabinoid CB2 (Homo sapiens, UniProt P34972); experiment: MDS Panlabs screen: cannabinoid CB2; format: binding; settings: Peptides
Procedure: as §1

COX-1 = COX-1 (Homo sapiens, UniProt P23219); experiment: MDS Panlabs screen: cyclooxygenase COX-1; format: biochemical
Procedure: as §1

[2] = Acute or chronic toxicity at repeated doses; format: in vivo; settings: 500 mg/kg vs anxiolytic dose
From the text: This is a dose 1000 times higher than that needed to reduce anxiety.

melanocortin MC4 = melanocortin MC4 (Homo sapiens, UniProt P32245); experiment: MDS Panlabs screen: melanocortin MC4; format: binding; settings: Peptides
Procedure: as §1

galanin GALR2 = galanin GALR2 (Homo sapiens, UniProt O43603); experiment: MDS Panlabs screen: galanin GALR2; format: binding; settings: Peptides
Procedure: as §1

adrenergic α2 = experiment: MDS Panlabs screen: adrenergic α2; format: binding; settings: Catecholamines
Procedure: as §1

Sigma non-selective = experiment: MDS Panlabs screen: Sigma non-selective; format: binding
Procedure: as §1

opiate non-selective = experiment: MDS Panlabs screen: opiate non-selective; format: binding; settings: Peptides
Procedure: as §1

domaine D1 = domaine D1 (Homo sapiens, UniProt P21728); experiment: MDS Panlabs screen: D1; format: binding; settings: Catecholamines
Procedure: as §1

[3] = general description of the substance; cited from earlier work
Histamine H1 = Histamine H1 (Homo sapiens, UniProt P35367); experiment: MDS Panlabs screen: Histamine H1; format: binding
Procedure: as §1

MAO A = MAO A (Homo sapiens, UniProt P21397); experiment: MDS Panlabs screen: MAO A; format: biochemical; settings: Catecholamines
Procedure: as §1

nicototinic = experiment: MDS Panlabs screen: nicotinic; format: binding; settings: Acetylcholine
Procedure: as §1

cannabinoid C131 = cannabinoid C131 (Homo sapiens, UniProt P21554); experiment: MDS Panlabs screen: cannabinoid (first subtype); format: binding; settings: Peptides
Procedure: as §1

CCKA = CCKA (Homo sapiens, UniProt P32238); experiment: MDS Panlabs screen: cholecystokinin (CCK) CCKA; format: binding; settings: Peptides
Procedure: as §1

VIP1 = VIP1 (Homo sapiens, UniProt P32241); experiment: MDS Panlabs screen: VIP1; format: binding; settings: Peptides
Procedure: as §1

5-HT2 = experiment: MDS Panlabs screen: 5-HT2; format: binding; settings: Serotonin (5-HT)
Procedure: as §1

Sequence of domaine D2 (P14416 whole entry): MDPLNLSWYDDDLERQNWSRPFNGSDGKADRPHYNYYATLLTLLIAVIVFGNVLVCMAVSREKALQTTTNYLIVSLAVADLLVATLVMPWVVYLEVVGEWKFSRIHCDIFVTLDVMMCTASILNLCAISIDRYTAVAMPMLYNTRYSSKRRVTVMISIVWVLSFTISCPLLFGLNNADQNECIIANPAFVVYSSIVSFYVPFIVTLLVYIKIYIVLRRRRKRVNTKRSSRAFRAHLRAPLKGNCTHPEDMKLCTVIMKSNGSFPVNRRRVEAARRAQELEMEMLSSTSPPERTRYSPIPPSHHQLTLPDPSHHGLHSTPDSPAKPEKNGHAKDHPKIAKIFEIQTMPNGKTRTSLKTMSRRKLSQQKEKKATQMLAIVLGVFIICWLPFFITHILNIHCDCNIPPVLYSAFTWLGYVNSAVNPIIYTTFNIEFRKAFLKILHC
Sequence of Histamine H1 (P35367 whole entry): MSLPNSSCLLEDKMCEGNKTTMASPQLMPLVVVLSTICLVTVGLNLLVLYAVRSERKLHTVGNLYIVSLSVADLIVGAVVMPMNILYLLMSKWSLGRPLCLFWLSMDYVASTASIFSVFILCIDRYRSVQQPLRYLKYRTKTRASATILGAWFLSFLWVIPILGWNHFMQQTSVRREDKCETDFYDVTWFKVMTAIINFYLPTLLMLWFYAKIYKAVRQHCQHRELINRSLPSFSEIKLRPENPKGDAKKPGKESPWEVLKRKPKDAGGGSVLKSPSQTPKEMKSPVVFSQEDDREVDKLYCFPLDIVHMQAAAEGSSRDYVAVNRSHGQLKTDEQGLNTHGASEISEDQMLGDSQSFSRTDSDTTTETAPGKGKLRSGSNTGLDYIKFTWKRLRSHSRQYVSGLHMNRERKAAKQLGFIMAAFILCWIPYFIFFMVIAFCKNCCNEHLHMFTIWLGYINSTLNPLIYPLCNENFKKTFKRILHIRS
Sequence of galanin GALR2 (O43603 whole entry): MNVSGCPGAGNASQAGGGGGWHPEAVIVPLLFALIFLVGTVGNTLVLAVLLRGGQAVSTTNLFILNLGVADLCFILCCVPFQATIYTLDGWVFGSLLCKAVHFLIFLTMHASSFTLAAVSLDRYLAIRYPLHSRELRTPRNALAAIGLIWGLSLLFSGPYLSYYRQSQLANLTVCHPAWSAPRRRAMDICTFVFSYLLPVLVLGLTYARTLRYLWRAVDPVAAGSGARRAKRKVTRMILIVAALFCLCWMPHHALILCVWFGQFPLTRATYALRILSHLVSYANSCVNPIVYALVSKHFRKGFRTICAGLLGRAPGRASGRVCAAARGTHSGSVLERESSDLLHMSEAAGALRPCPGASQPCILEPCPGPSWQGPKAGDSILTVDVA
Sequence of cannabinoid C131 (P21554 whole entry): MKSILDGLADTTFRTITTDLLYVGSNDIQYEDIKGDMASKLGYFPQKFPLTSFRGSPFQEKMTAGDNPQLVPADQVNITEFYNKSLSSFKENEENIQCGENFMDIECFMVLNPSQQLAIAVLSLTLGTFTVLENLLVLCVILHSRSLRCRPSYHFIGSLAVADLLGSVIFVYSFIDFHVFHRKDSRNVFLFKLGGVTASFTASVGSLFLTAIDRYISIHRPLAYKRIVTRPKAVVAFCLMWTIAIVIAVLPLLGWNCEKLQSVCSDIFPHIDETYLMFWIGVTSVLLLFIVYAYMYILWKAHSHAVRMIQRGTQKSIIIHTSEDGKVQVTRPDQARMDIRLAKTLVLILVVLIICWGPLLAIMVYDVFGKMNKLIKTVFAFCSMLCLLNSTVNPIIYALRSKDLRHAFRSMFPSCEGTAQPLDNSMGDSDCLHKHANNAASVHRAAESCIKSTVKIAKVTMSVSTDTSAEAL
Sequence of MAO A (P21397 whole entry, species assumed): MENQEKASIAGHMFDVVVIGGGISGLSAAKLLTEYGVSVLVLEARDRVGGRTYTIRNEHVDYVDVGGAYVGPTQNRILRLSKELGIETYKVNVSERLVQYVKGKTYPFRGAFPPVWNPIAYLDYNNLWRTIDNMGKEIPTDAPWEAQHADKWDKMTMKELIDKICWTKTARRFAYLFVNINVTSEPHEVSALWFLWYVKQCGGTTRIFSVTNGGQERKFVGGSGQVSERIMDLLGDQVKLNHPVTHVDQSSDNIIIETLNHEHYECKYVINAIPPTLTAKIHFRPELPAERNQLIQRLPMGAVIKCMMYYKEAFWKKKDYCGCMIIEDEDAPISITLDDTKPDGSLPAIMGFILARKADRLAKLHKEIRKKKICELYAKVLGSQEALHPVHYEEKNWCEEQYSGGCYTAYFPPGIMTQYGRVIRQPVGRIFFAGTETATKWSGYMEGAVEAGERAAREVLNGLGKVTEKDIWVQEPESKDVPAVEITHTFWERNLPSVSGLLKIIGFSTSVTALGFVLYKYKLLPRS
Sequence of domaine D1 (P21728 whole entry): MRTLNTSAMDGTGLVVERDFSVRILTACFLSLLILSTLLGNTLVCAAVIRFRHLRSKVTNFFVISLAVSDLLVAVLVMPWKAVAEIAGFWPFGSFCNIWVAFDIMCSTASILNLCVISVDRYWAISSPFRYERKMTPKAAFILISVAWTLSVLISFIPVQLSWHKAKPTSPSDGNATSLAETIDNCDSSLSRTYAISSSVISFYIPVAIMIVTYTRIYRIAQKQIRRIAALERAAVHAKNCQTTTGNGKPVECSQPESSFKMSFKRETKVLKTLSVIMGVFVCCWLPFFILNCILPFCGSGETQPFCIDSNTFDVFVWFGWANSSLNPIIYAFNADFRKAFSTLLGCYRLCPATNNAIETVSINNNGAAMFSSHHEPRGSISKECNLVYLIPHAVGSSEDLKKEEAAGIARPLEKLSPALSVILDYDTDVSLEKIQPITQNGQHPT
Sequence of serotonin transporter (P31645 whole entry): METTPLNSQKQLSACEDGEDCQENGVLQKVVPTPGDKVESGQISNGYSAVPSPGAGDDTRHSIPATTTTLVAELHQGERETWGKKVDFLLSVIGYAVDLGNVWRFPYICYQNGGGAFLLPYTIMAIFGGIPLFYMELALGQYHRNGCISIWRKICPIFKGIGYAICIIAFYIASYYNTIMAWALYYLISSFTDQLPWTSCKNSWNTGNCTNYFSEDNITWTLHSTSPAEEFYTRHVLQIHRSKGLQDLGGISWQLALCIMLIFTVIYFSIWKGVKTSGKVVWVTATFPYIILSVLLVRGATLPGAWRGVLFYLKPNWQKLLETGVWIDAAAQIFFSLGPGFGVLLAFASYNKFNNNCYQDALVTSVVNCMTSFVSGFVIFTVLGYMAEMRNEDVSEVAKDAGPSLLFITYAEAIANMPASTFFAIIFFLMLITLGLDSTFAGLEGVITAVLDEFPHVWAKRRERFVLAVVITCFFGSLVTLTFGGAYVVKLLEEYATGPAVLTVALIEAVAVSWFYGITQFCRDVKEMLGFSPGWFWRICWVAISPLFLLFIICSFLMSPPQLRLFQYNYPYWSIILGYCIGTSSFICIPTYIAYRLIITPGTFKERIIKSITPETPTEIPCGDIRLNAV
Sequence of VIP1 (P32241 31-457): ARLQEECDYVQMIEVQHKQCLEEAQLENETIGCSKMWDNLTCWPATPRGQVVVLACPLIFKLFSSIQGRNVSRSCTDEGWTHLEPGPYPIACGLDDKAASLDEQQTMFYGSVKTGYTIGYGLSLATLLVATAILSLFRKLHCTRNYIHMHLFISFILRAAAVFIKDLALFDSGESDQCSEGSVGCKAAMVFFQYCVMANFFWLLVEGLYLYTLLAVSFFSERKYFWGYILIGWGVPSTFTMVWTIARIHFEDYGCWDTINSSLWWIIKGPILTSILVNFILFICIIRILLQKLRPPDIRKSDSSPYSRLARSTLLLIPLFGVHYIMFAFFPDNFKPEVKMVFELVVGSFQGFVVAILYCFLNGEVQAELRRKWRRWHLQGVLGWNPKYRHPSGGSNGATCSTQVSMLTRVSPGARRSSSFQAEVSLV
Sequence of COX-1 (P23219 24-599): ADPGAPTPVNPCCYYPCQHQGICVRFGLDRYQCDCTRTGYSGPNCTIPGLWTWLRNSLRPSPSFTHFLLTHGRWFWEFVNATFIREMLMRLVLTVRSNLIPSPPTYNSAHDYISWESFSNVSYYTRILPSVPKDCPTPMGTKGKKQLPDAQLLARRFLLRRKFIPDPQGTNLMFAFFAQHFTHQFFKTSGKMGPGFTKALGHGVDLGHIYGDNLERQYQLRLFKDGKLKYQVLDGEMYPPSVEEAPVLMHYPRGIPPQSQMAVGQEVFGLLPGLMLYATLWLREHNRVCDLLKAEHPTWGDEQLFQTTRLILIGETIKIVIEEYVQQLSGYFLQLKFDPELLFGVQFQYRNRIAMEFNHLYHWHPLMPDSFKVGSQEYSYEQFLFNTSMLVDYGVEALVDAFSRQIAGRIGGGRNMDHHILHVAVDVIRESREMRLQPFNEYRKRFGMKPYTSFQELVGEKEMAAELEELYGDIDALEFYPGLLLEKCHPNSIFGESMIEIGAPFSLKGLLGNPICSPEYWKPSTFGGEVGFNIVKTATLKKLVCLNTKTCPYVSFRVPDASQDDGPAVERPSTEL
Sequence of cannabinoid CB2 (P34972 whole entry): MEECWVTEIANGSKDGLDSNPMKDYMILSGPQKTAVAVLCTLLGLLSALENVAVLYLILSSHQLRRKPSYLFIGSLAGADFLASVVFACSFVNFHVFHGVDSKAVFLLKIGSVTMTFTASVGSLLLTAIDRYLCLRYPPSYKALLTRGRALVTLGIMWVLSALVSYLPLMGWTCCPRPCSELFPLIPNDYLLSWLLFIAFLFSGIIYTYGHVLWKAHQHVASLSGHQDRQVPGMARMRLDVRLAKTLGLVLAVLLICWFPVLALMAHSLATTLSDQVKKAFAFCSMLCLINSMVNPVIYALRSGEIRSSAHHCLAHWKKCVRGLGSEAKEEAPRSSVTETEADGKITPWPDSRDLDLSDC

## C=C(C)[C@@H]1CC[C@]2(C(=O)O)CC[C@]3(C)C(CC[C@@H]4[C@@]5(C)CC[C@H](O)C(C)(C)[C@@H]5CC[C@]43C)[C@@H]12 (stereo partly shown) [betulinic acid, Betulinic acid]
GABA transporter
  affected by betulinic acid: none of the following neurotransmitters or proteins were affected
bombesin
  affected by betulinic acid: none of the following neurotransmitters or proteins were affected
Adrenergic α1
  affected by betulinic acid: none of the following neurotransmitters or proteins were affected
MAO B
  affected by betulinic acid: none of the following neurotransmitters or proteins were affected
GABAA, BZP
  affected by betulinic acid: none of the following neurotransmitters or proteins were affected
Adrenergic β
  affected by betulinic acid: none of the following neurotransmitters or proteins were affected
NE transporter
  affected by betulinic acid: none of the following neurotransmitters or proteins were affected
BALB/c mice; 0.25 mg/kg i.p.
  number of entries on the open arm of the elevated plus maze: significantly increased
  proportion of time spent on the open arm of the elevated plus maze: significantly increased
BALB/c mice; 2.5 mg/kg i.p.
  number of entries on the open arm of the elevated plus maze: significantly increased
  proportion of time spent on the open arm of the elevated plus maze: significantly increased
GABA C1-channel
  affected by betulinic acid: none of the following neurotransmitters or proteins were affected
Serotonin transporter
  affected by betulinic acid: none of the following neurotransmitters or proteins were affected
[1]
  proportion of time spent in the open arm of the elevated plus maze: increased
Domaine D2
  affected by betulinic acid: none of the following neurotransmitters or proteins were affected
Tachykinin NK3
  affected by betulinic acid: none of the following neurotransmitters or proteins were affected
Histamine H3
  affected by betulinic acid: none of the following neurotransmitters or proteins were affected
Cannabinoid CB2
  affected by betulinic acid: none of the following neurotransmitters or proteins were affected
COX-1
  affected by betulinic acid: none of the following neurotransmitters or proteins were affected
[2]
  non-toxic dose relative to the dose needed to reduce anxiety: 1000 times
Melanocortin MC4
  affected by betulinic acid: none of the following neurotransmitters or proteins were affected
Galanin GALR2
  affected by betulinic acid: none of the following neurotransmitters or proteins were affected
Adrenergic α2
  affected by betulinic acid: none of the following neurotransmitters or proteins were affected
Sigma non-selective
  affected by betulinic acid: none of the following neurotransmitters or proteins were affected
Opiate non-selective
  affected by betulinic acid: none of the following neurotransmitters or proteins were affected
Domaine D1
  affected by betulinic acid: none of the following neurotransmitters or proteins were affected
[3]
  solubility (solvents): soluble in water, ethanol, ether, acetone, benzene, and chloroform
Histamine H1
  affected by betulinic acid: none of the following neurotransmitters or proteins were affected
MAO A
  affected by betulinic acid: none of the following neurotransmitters or proteins were affected
nicototinic
  affected by betulinic acid: none of the following neurotransmitters or proteins were affected
Cannabinoid C131
  affected by betulinic acid: none of the following neurotransmitters or proteins were affected
CCKA
  affected by betulinic acid: none of the following neurotransmitters or proteins were affected
VIP1
  affected by betulinic acid: none of the following neurotransmitters or proteins were affected
5-HT2
  affected by betulinic acid: none of the following neurotransmitters or proteins were affected
